Target: T1, Thermococcus sp. (strain 9° N-7) DNA ligase, clone B2, SEQ ID NO:15 (Thermococcus nautili, UniProt W8P6M3)
T1 construct: E. coli BL21(DE3)-RIL; purified
T1 sequence (W8P6M3 with tags, fused parts or gaps): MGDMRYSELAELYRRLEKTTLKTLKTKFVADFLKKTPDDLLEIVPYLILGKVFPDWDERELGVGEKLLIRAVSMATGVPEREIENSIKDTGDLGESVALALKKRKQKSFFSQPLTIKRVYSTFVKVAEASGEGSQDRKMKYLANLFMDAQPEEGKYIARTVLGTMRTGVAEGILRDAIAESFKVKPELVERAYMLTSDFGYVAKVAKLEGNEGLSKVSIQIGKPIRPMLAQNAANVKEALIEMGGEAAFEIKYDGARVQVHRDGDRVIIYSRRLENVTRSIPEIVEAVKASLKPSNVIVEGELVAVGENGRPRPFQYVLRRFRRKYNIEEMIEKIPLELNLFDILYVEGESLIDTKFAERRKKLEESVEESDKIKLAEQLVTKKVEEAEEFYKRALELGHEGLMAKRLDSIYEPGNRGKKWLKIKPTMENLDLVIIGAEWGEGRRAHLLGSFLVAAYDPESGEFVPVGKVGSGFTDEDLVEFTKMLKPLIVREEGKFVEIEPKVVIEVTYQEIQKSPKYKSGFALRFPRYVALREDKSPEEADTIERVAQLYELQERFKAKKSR
Assay: Km for ATP of purified Thermococcus sp. (strain 9° N-7) DNA ligase (ligation of lambda DNA)
Format: biochemical
Conditions: typical assay: predigested lambda DNA substrate, 45° C.; recommended 10 mM Tris-HCl pH 7.5, 2.5 mM MgCl2, 2.5 mM DTT
Experimental: The recommended reaction conditions are:
The typical substrate for assaying activity at 45° C. is lambda DNA. Appropriately digested lambda DNA can reveal the state of ligation of the 12-base extension at the termini of lambda DNA. We typically used either a HindIII or BstEII predigested lambda DNA. Analysis of the ligation was performed on agarose gel electrophoresis.

Km: < 100 µM
SMILES: Nc1ncnc2c1ncn2[C@@H]1O[C@H](COP(=O)(O)OP(=O)(O)OP(=O)(O)O)[C@@H](O)[C@H]1O [ATP]

Reference: patent US20090142811A1, “Discovery, Cloning and Purification of Thermococccus sp. (Strain 9 Degrees N-7) Dna Ligase” (New England Biolabs, Inc., priority 2005, published 2009)
